# Data from paper PMC10266688 (PLOS ONE, 2023).
# What was measured:
# [1] = Plasma stability, mouse EDTA plasma; type: in vitro ADME; details: for % Drug Remaining, Plasma (Mouse EDTA): 10 μM, 37°C
# [2] = system: proteasome (4UbFL reporter); experiment: In vivo 4UbFL proteasome reporter in electroporated leg muscle, CD1 mice; parameters: species or system mouse
# Procedure: A patch of CD1 mouse leg was shaved of hair and 10 μg 4Ub-FL plasmid in 20 μL of PBS was injected into the quadriceps femoralis muscle followed immediately by injection of the 2 Needle Array to 5 mm depth encompassing the injection site and square wave EP (ElectroSquarePorator 833, BTX-2 Needle array 5mm gap, Harvard apparatus) delivered as eight pulses at 106V for 20 ms with 200 ms intervals. One day post-EP, mice were anesthetized with isoflurane, injected IP with luciferin (0.3 mg in 100 μL water) and optical imaging was performed to determine basal level luciferase expression. Images were acquired for 10 min with a Xenogen IVIS 200 (Caliper, Hopkinton, MA). Equally sized areas were analyzed using Living Image 2.20 software.
# Two days later, luciferin was injected IP and the baseline enzymic activity of luciferase in the transduced muscle tissue was visualized as bioluminescence within this region of interest (ROI) using an IVIS imager. […] After 4h, 24h and 48h the mice were again injected with luciferin, imaged and bioluminescence was quantified (Fig 5B).
# A) ES2 cells stably transduced with the 4UbFL reporter plasmid were treated with compounds at indicated doses for 4 h. The cells were then washed, lysed and their luminescence measured by a luminometer after addition of luciferin. B) Female CD1 mice electroporated with 4UbFL plasmid in their leg muscle. After 48 h, the mice were injected with luciferin, imaged by IVIS for their basal bioluminescence and randomized into two groups of five. […] D) Up284 tissue distribution. […] Up284 levels in tissue samples were analyzed by HPLC. E) Up284 pharmacokinetics. […] Blood was collected at indicated time points thereafter and analyzed for Up284 levels by HPLC.
# [3] = system: GAPDH, RPN2 and USP14; experiment: CETSA control proteins, SKOV3 cells; type: binding, human; details: SKOV3, 10 μM, 30 min
# Procedure: Cells were incubated in a thermal cycler (Biorad IQ5 Cycler) over a gradient of temperatures for 4 min, followed by incubation at 25°C for 3 min, then snap-frozen in liquid nitrogen and subjected to three freeze–thaw cycles. Samples were briefly vortexed and centrifuged at 16,000 x g for 20 min at 4°C. Cleared cell lysates were resolved in SDS–PAGE followed by immunoblotting for RPN13, GAPDH, RPN2 and USP14.
# Cellular Thermal Shift Assay (CETSA) assesses thermal stabilization of proteins upon ligand binding and is used extensively to detect drug interactions by implementing a thermal shift in the cellular context. The assay involves drug treatment of cells, heating to denature and precipitate proteins in a thermocycler with a specified gradient of temperatures, cell lysis by freeze/thaw cycles, and the separation of cell debris and aggregates from the soluble protein fraction by centrifugation. Whereas unbound proteins denature and precipitate at elevated temperatures, ligand-bound proteins remain in solution. The proportion of individual proteins remaining in solution can be detected by quantitative Western blotting. […]. There was no impact on other control proteins tested, including a house keeping protein (GAPDH) and proteasome subunits (RPN2 and USP14). […]
# Resuspended cells were aliquoted into PCR strips. […]
# [4] = system: SKOV3 cells; experiment: MTT cytotoxicity assay, SKOV3 cells, 72 h; type: cell-based; details: Homo sapiens, SK-OV-3; 72 h treatment
# [5] = system: TC1-OVA cells; experiment: Antigen presentation (H-2Kb/[…]) by TC1-OVA cells, flow cytometry; type: cell-based, mouse; details: 0.25 μM, 12 h
# Procedure: TC1 cells stably expressing Ovalbumin (TC1-OVA) were plated (125,000 cells/well) in a 6 well plate in 2 mL RPMI complete medium.
# C) TC1-OVA cells were plated (125,000 cells/well) in a 6 well plate in 2 mL/well in complete medium.
# [6] = biological target: T1, 42kDa cellular protein (RPN13) (Homo sapiens, UniProt Q16186); experiment: Competition for RA190B binding in HeLa cell lysate; details: HeLa lysate pre-treated with compound (5 μM) 45 min 4°C, then RA190B (20 μM)
# T1 construct: endogenous in cells; host or cells: HeLa cell lysate
# T1 sequence (Q16186 2-407): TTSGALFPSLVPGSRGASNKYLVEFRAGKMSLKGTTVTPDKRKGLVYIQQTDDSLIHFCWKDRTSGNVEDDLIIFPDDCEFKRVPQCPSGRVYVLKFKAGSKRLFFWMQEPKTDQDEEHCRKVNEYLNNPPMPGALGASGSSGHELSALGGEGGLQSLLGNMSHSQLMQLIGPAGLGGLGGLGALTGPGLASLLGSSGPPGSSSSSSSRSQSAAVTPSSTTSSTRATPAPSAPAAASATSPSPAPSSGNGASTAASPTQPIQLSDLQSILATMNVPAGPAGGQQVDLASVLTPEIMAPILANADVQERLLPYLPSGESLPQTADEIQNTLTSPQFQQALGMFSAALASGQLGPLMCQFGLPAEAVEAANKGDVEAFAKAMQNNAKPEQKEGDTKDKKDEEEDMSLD
# Procedure: NEM (1 mM) used as positive control.
# [7] = system: HMW polyUb proteins in ES2 cells; experiment: Western blot for polyubiquitinated proteins; details: by 12 h
# [8] = system: cellular DUB enzymes; experiment: Total cellular DUB activity, Ub-AMC cleavage, SKOV3 cells; details: 5 μM, 1 h
# [9] = Microsomal stability, human liver microsomes; type: in vitro ADME; details: for % Drug Remaining NADPH Neg, Human Liver Microsomes / % Drug Remaining NADPH Pos, Human Liver Microsomes: 10 μM
# Procedure: An incubation mixture with, and without NADPH-generating system, as well as a neat solution prepared without microsomes and NADPH-generating system was used. […] All reactions were initiated with the addition of Up284. Incubations were performed in glass tubes maintained at 37°C in a shaker bath. At 0, 30, and 60 minutes, 10 μL samples were withdrawn from the reaction mixture, and 0.5 mL of acetonitrile containing internal standard was added to each. Samples were vortex-mixed and subjected to centrifugation for 5 min at 1430 x g. A 10 μL aliquot of the supernatant was injected onto the LC-MS/MS instrument for qualitative analysis using a temperature-controlled autosampling device operating at 5°C.
compound,measurement,setting,value
N#Cc1ccc(/C=C2/C(=O)/C(=C/c3ccc(C#N)cc3)C23CCNCC3)cc1 [Up284],"% Drug Remaining, Plasma (Mouse EDTA)",[1]; 0 min,100%
same,"% Drug Remaining, Plasma (Mouse EDTA)",[1]; 30 min,84%
same,"% Drug Remaining, Plasma (Mouse EDTA)",[1]; 60 min,94%
same,degradation in murine plasma,[1]; after incubating for 1 hour,< 10%
same,"4UbFL reporter stabilization in muscle, PO",[2]; Up284 PO once 40mg/kg vs ixazomib 10 mg/kg,better stabilized the reporter than ixazomib
same,duration of enhanced 4UbFL bioluminescence,[2]; single IP dose 40 mg/kg,> 48 h
same,4UbFL bioluminescence in leg muscle,"[2]; single IP dose 40 mg/kg, 4h, 24h and 48h",significantly enhanced bioluminescence levels
same,"thermal stabilization of GAPDH, RPN2 and USP14",[3],no impact
same,IC50,[4],71 nM
same,MHC class I antigen presentation (SIINFEKL on H-2Kb),[5],enhanced MHC class I antigen presentation
same,competition for RA190B binding to the 42KDa cellular protein,[6],competed
same,accumulation of HMW polyUb proteins,[7],profound accumulation
same,total lysate DUB enzymatic activity (Ub-AMC),[8],No reduction
same,"additional degradation in the presence of NADPH, human liver microsomes",[9],~ 10%
same,degradation in human liver microsomes without NADPH,[9],~ 50%
same,"% Drug Remaining NADPH Neg, Human Liver Microsomes",[9]; 0 min,100%
same,"% Drug Remaining NADPH Pos, Human Liver Microsomes",[9]; 0 min,100%
same,"% Drug Remaining NADPH Neg, Human Liver Microsomes",[9]; 30 min,57%
same,"% Drug Remaining NADPH Pos, Human Liver Microsomes",[9]; 30 min,43%
same,"% Drug Remaining NADPH Neg, Human Liver Microsomes",[9]; 60 min,52%
same,"% Drug Remaining NADPH Pos, Human Liver Microsomes",[9]; 60 min,43%
